How the values were obtained:
growth of cartilage = conditions: in vivo; cited from earlier work
[1] = system: children with Osteogenesis Imperfecta; assay: Continuous disodium pamidronate treatment of children with Osteogenesis Imperfecta (absorptiometry, biochemical markers, quantitative computerized tomography of the tibia); assay type: in vivo, human
Protocol: The doses were adjusted to the patient's condition with a mean of 3.5 mg/Kg of body weight/day by oral administration, or 20 mg per dose, every 3-6 months, by intravenous administration in one of the cases.
The latter can be attributed to the scarce development of inertia due to the internal osseous lack of resorption in the diaphysis. In FIG. 2 it can be observed that in children with normal development, there exists a range of cortical mineralization which contributes to the diaphysial stability (resistance to deformation). This range is of approximately 1020-1100 mg/cm3.
The administration period of bisphosphonates was 2-4.5 years, indicating the existence of a wide interindividual variability in order to obtain the “mineralizing” effect and the inconvenience of adopting fixed periods of treatments.

CN(C)CCC(O)(P(=O)(O)O)P(=O)(O)O [olpadronate]
effect on the growth of cartilage (growth of cartilage): not to affect the growth of cartilage

NCCC(O)(P(=O)(O)O)P(=O)(O)O [pamidronate, disodium pamidronate]
cortical mineralization range reached (cortical mineral density of the tibia, vDMO) ([1]; FIG. 2, range of normal children that contributes to diaphysial stability, reached by treated OI children): 1020-1100 mg/cm3
osseous metabolic turnover (biochemical markers of osseous resorption and formation) ([1]; OI type III/IV children, continuous scheme 2.5-4 years, mean 3.5 mg/Kg/day oral or 20 mg i.v. every 3-6 months, urinary hydroxyproline/creatinine, serum alkaline phosphatase, osteocalcine): reduction of the osseous metabolic turnover
total apparent mineral density of the lumbar vertebrae and the neck of the femur ([1]; osseous absorptiometries, continuous scheme 2.5-4 years): progressive improvement

Reference: patent US7846474B2, “Use of bisphosphonates for the treatment of osteogenesis imperfecta” (Gador S.A., priority 1999, dated 2010)
